Data published in publication PMC5796017, “Enantiomeric Effect of D-Amino Acid Substitution on the Mechanism of Action of α-Helical Membrane-Active Peptides” (International Journal of Molecular Sciences, 2017).
Converted amounts (≈) assume the structure as drawn.

Columns and labels:
MIA PaCa-2 = test: MTT cell viability assay; assay type: cell-based, human; settings: MIA PaCa-2, MTT, 24 h; mean ± SEM of three independent determinations
Experimental: (§1) HeLa, MIA PaCa-2, HPAC, and Bxpc-3 cells were maintained in Dulbecco’s modified Eagle medium) with 10% fetal bovine serum, penicillin (100 U/mL), and streptomycin ([…]) in a humid atmosphere at 37 °C with 5% CO2. The effect of the peptides on the survival of HeLa, MIA PaCa-2, HPAC, and Bxpc-3 cells was determined by 3-(4,5-dimethyl-2-thiazolyl)-2,5-diphenyl-2H-tetrazolium bromide (MTT) assay, as described in a previous study. Briefly, cells were seeded in 96-well plates at a density of 5000 per well. After overnight incubation, cells were incubated, in the absence, or presence of various concentrations of peptides for 24 h. Then, the formazan crystals formed by MTT were dissolved with dimethyl sulfoxide (DMSO) and the absorbance was determined at 492 nm with a microplate reader (GF-M3000; Gaomi Caihong Analytical Instruments Co., Shandong, China). The results were expressed as IC50 values, representing the concentration at which cell viability was reduced by 50%. The cytotoxicity assays were repeated in triplicate.

BxPC-3 = test: MTT cell viability assay; assay type: cell-based, human; settings: BxPC-3, MTT, 24 h; mean ± SEM of three independent determinations
Experimental: as §1

HPAC = test: MTT cell viability assay; assay type: cell-based, human; settings: 24 h, mean ± SEM of three independent determinations
Experimental: as §1

HeLa = test: MTT cell viability assay; assay type: cell-based, human; settings: 24 h, mean ± SEM of three independent determinations
Experimental: as §1

P. aeruginosa ATCC27853 = test: Antimicrobial activity, microtiter dilution MIC; assay type: cell-based, Pseudomonas aeruginosa; settings: G−; MH medium, 5 × 10^5 CFU/mL, 37 °C, 24 h, triplicate
Experimental: (§2) The antimicrobial activity of the peptides was determined by the standard microtiter dilution method and indicated as MIC (minimal inhibitory concentration) as described previously. Briefly, bacteria were cultured in Mueller–Hinton (MH) medium overnight at 37 °C, diluted to a final inoculum of 5 × 10^5 colony-forming units (CFU)/mL with MH and loaded into 96-well microtiter plates (90 μL/well) with serial dilution of peptides (10 μL/well), with a further incubation at 37 °C for 24 h. MIC was expressed as the lowest peptide concentration that inhibited the growth of bacteria. The antimicrobial assays were repeated in triplicate.

[1] = tested on: human red blood (hRBC) cells; test: Hemolytic activity assay; assay type: cell-based; settings: 2% human RBC in PBS, 37 °C, 2 h, absorbance 578 nm, triplicate
Experimental: The […] of the peptides was measured by a hemolytic activity assay as described previously. Briefly, healthy human RBCs were collected using an anticoagulation tube with EDTAK2 and centrifuged at 1000 rpm for 5 min. The erythrocytes were washed three times, then diluted to a concentration of 2% in phosphate-buffered saline (PBS). The peptides were serially diluted in PBS and 70 μL of the peptide solutions and 2% RBC suspension were added simultaneously to each well of a 96-well plate (round bottom) for a further incubation at 37 °C for 2 h. Then, the plates were centrifuged for 10 min at 3000 rpm and the supernatant (90 μL) was transferred to a 96-well plate (flat bottom). The absorbance of the supernatant was measured on a microplate reader at 578 nm. Erythrocytes in PBS and distilled water were used as the negative (0%) and positive (100%) controls, respectively. The hemolytic activity was calculated as the percentage of experimental group over positive control (100%), after subtraction of negative control (0%). The hemolytic assays were repeated in triplicate.

[2] = RP-HPLC retention time as relative hydrophobicity; assay type: physicochemical; settings: 25 °C, used by the paper as measure of relative hydrophobicity
Experimental: The RP-HPLC retention time has been widely used to represent the relative hydrophobicity of peptides in many studies.The relative hydrophobicity of the peptides was determined by the RP-HPLC retention times at 25 °C. The change in hydrophobicity of the peptides caused by D-amino acid substitutions was mainly due to the disruption of the helical structure.

S. epidermidis ATCC12228 = test: Antimicrobial activity, microtiter dilution MIC; assay type: cell-based, Staphylococcus epidermidis; settings: G+; MH medium, 5 × 10^5 CFU/mL, 37 °C, 24 h, triplicate
Experimental: as §2

S. aureus ATCC25923 = test: Antimicrobial activity, microtiter dilution MIC; assay type: cell-based, Staphylococcus aureus; settings: G+; MH medium, 5 × 10^5 CFU/mL, 37 °C, 24 h, triplicate
Experimental: as §2

[3] = Circular dichroism (CD) secondary structure; assay type: physicochemical
Description: The influence of the amino acid substitutions on the peptide secondary structure were investigated using circular dichroism (CD) spectroscopy under benign conditions (KP buffer) and under conditions designed to mimic the hydrophobic environment of the membrane (KP buffer with 50% TFE). D-amino acid substitutions reduced the helicity of the peptide analogs relative to that of peptide V13K, in both KP buffer and KP buffer with 50% TFE. […] As shown in Table 2 and Figure S1, the values of the relative helicity of peptides with polar face substitutions are in the order of K14D (76.99%) > S11D/K14D (51.33%) > S11D/K14D/T15D (38.67%). Similarly, the relative helicity of the peptides with substitutions on the non-polar face follows the same trend: A12D (70.83%) > F9D/A12D (38.26%) > F9D/A12D/V16D (36.41%). Since the values of the relative helicity of the peptides with D-amino acid substitutions on the non-polar face were less than those peptide analogs with the same number of D-amino acid substitutions on the polar face, it is clear that the amino acid residues on the non-polar face may be more important for stabilizing the α-helical structure than residues on the polar face.
The secondary structures of the peptides were examined using a Jasco J-810 CD spectrometer (Jasco, Easton, MD, USA) at 25 °C as described previously. […] The mean residue molar ellipticities were calculated according to the equation [θ] = θ/10lCMn, in which, θ represents the ellipticity in millidegrees, l is the optical path length of the cuvette in centimeters, CM is the peptide concentration in mol/L, and n is the number of residues in the peptide. The mean residue molar ellipticities at 222 nm, [θ]222 (degree·cm^2·dmol^−1), were used to calculate the relative helical content of the peptides.

E. coli ATCC25922 [4] = test: Outer membrane permeability assay (NPN uptake); assay type: cell-based, Escherichia coli; settings: 16 μM peptide, 10 min, excitation 350 nm, emission 420 nm
Description: To explore the potential role of the helicity of the peptides in damaging cell membranes, we investigated the disruption of the outer membrane of Escherichia coli (E. coli) by quantifying the fluorescence intensity of 1-N-phenylnaphthylamine (NPN), which is a hydrophobic fluorescent probe. The intensity of NPN is weak in a hydrophilic environment. The fluorescence intensity of NPN gradually increases as it is exposed to a more hydrophobic environment due to damage to the bacterial outer membrane by MAPs.
The outer membrane permeability of the peptides against E. coli ATCC25922 was evaluated using the hydrophobic fluorescent probe NPN, as performed previously. In brief, E. coli was cultured in LB medium at 37 °C until the absorbance of the bacterial suspension at 600 nm was 0.4–0.6, the bacterial pellet was collected by centrifugation and resuspended in a reaction buffer (pH 7.4, 5 mM HEPES, 5 mM NaN3, 0.25 mM NPN) until the absorbance at 600 nm was 0.5. Then, an aliquot of the peptide sample and the bacterial suspension were co-incubated to give a final peptide concentration of 16 μM. The same volume of reaction buffer was used as the negative control. A Shimadzu RF-5301 PC fluorescent spectrometer (excitation wavelength of 350 nm, emission wavelength of 420 nm) was used to collect data continuously for 10 min.

E. coli ATCC25922 [5] = test: Antimicrobial activity, microtiter dilution MIC; assay type: cell-based, Escherichia coli; settings: G−; MH medium, 5 × 10^5 CFU/mL, 37 °C, 24 h, triplicate
Experimental: as §2

Compound `CC[C@H](C)[C@H](NC(=O)[C@H](C)NC(=O)[C@H](CCCCN)NC(=O)[C@H](CC(C)C)NC(=O)[C@H](C)NC(=O)[C@@H](NC(=O)[C@H](Cc1c[nH]cn1)NC(=O)[C@H](CC(C)C)NC(=O)[C@@H](NC(=O)[C@@H](NC(=O)[C@@H](CCCCN)NC(=O)[C@H](CCCCN)NC(=O)[C@H](C)NC(=O)[C@H](CO)NC(=O)[C@H](CCCCN)NC(=O)[C@H](Cc1ccccc1)NC(=O)[C@@H](NC(=O)[C@H](CCCCN)NC(=O)[C@H](CC(C)C)NC(=O)[C@H](Cc1ccccc1)NC(=O)[C@H](CO)NC(=O)[C@H](CCCCN)NC(=O)[C@H](Cc1c[nH]c2ccccc12)NC(=O)[C@H](CCCCN)NC(C)=O)[C@@H](C)O)[C@@H](C)O)C(C)C)[C@@H](C)O)C(=O)N[C@@H](CO)C(=O)N[C@@H](CO)C(N)=O` [Peptide K14D] has an IC50 (MIA PaCa-2) of 17.9 ± 2.3 µM, an IC50 (BxPC-3) of 20 ± 0.8 µM and an IC50 (HPAC) of 7.2 ± 5.2 µM. For the same compound, the IC50 (HeLa) was 15.6 ± 4.1 µM, the MIC (P. aeruginosa ATCC27853) was 16 µM (≈ 47.9 µg/mL) and the “MHC (minimal hemolytic concentration)” value [1] was 125 µM. For the same compound, the “tR (RP-HPLC retention time), relative hydrophobicity” value [2] was 41.93 min, the MIC (S. epidermidis ATCC12228) was 16 µM (≈ 47.9 µg/mL) and the MIC (S. aureus ATCC25923) was 32 µM (≈ 95.7 µg/mL). The “[θ]222, benign” value ([3]; CD, KP buffer (100 mM KCl, 50 mM KH2PO4/K2HPO4, pH 7.4), 75 μM peptide, 25 °C) was −2223.13 degree·cm^2·dmol^−1, the “[θ]222, 50% TFE” value ([3]; CD, KP buffer with 50% TFE, 75 μM peptide, 25 °C) was −38,897.2 degree·cm^2·dmol^−1 and the “α-Helix (%), 50% TFE (relative helicity)” value ([3]; KP buffer with 50% TFE, relative to molar ellipticity of V13K in 50% TFE) was 76.99%. The “α-Helix (%), benign” value ([3]; KP buffer, relative to molar ellipticity of V13K in 50% TFE) was 4.4%, the “Outer membrane permeabilization, NPN fluorescence intensity” value (E. coli ATCC25922 [4]) was “enhanced” and the MIC (E. coli ATCC25922 [5]) was 32 µM (≈ 95.7 µg/mL).
